Test results reported in the supplement of paper PMC4862054.

Legend:
Assay in all cases: normalised viability (% of control), CellTiter-Blue; higher = more viable cells (about 100 = DMSO control)
[1] = system: CAL-148; details: 10 nM; incubation time: 72 h
How it was run: (§1)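 Each value is normalised viability at a single listed concentration of the series. Breast cancer cell lines in 384-well plates were incubated 72 h with compound and read by CellTiter-Blue fluorescence at 560/590 nm, with vehicle set to 100 and a positive kill control to 0 on every plate.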

[2] = system: CAL-51; details: 10 nM; incubation time: 72 h
How it was run: as §1

[3] = system: SK-BR-3; details: 100 nM; incubation time: 72 h
How it was run: as §1

[4] = system: CAL-85-1; details: 10 nM; incubation time: 72 h
How it was run: as §1

[5] = system: MDA-MB-436; details: 100 nM; incubation time: 72 h
How it was run: as §1

[6] = system: CAL-120; details: 100 nM; incubation time: 72 h
How it was run: as §1

[7] = system: BT-549; details: 100 nM; incubation time: 72 h
How it was run: as §1

[8] = system: MDA-MB-453; details: 10 nM; incubation time: 72 h
How it was run: as §1

[9] = system: HDQ-P1; details: 10 nM; incubation time: 72 h
How it was run: as §1

[10] = system: MFM-223; details: 100 nM; incubation time: 72 h
How it was run: as §1

[11] = system: HCC1599; details: 100 nM; incubation time: 72 h
How it was run: as §1

[12] = system: MDA-MB-468; details: 100 nM; incubation time: 72 h
How it was run: as §1

[13] = system: MDA-MB-231; details: 100 nM; incubation time: 72 h
How it was run: as §1

[14] = system: Hs578T; details: 100 nM; incubation time: 72 h
How it was run: as §1

[15] = system: BT-474; details: 100 nM; incubation time: 72 h
How it was run: as §1

[16] = system: HCC1937; details: 100 nM; incubation time: 72 h
How it was run: as §1

[17] = system: DU-4475; details: 10 nM; incubation time: 72 h
How it was run: as §1

[18] = system: CAL-148; details: incubation time: 72 h
How it was run: as §1

[19] = system: CAL-51; details: incubation time: 72 h
How it was run: as §1

[20] = system: SK-BR-3; details: incubation time: 72 h
How it was run: as §1

[21] = system: CAL-85-1; details: incubation time: 72 h
How it was run: as §1

[22] = system: MDA-MB-453; details: incubation time: 72 h
How it was run: as §1

[23] = system: MFM-223; details: incubation time: 72 h
How it was run: as §1

[24] = system: HCC1599; details: incubation time: 72 h
How it was run: as §1

[25] = system: MDA-MB-468; details: incubation time: 72 h
How it was run: as §1

[26] = system: MDA-MB-231; details: incubation time: 72 h
How it was run: as §1

[27] = system: Hs578T; details: incubation time: 72 h
How it was run: as §1

[28] = system: BT-474; details: incubation time: 72 h
How it was run: as §1

[29] = system: DU-4475; details: incubation time: 72 h
How it was run: as §1

C[C@@H](Oc1cc(-c2cnn(C3CCNCC3)c2)cnc1N)c1c(Cl)ccc(F)c1Cl [Crizotinib]
Details	normalised viability [%]
[1]	105
[2]	107
[3]	59.1
[4]	93.8
[5]	84.8
[6]	96.8
[7]	95.2
[8]	94.2
[9]	85
[10]	83.4
[11]	99.6
[12]	97.7
[13]	84.7
[14]	64.8
[15]	92.7
[16]	102
[17]	91.3

normalised viability [%]
Details	3 nM	10 nM	30 nM	100 nM	1000 nM	10000 nM
[18]	91.8	–	94.1	100	–	–
[19]	107	–	107	108	–	–
[20]	–	97.2	–	–	110	5.81
[21]	91.7	–	91	94	–	–
[22]	95.2	–	81.3	87.6	–	–
[23]	–	75.5	–	–	73	34.1
[24]	–	105	–	–	99.1	60.8
[25]	–	107	–	–	95.3	8.61
[26]	–	89.8	–	–	63.5	0.88
[27]	–	102	–	–	103	34
[28]	–	94.2	–	–	93.3	10.3
[29]	94.9	–	98.8	96.2	–	–

CN(C)/N=N/c1[nH]cnc1C(N)=O [Dacarbazine]
Details	normalised viability [%]
[1]	96.4
[2]	85.9
[3]	86.9
[4]	91.8
[5]	86.8
[6]	77.9
[7]	99.4
[8]	99.2
[9]	111
[10]	88.8
[11]	78.8
[12]	112
[13]	93.1
[14]	106
[15]	117
[16]	106
[17]	98.4

normalised viability [%]
Details	3 nM	10 nM	30 nM	100 nM	1000 nM	10000 nM
[18]	84.4	–	96	99.2	–	–
[19]	92.7	–	88.9	88.9	–	–
[20]	–	104	–	–	95.3	100
[21]	95.8	–	84.6	90.5	–	–
[22]	103	–	102	102	–	–
[23]	–	90.4	–	–	89.3	104
[24]	–	93.8	–	–	97.1	86.7
[25]	–	104	–	–	104	88.8
[26]	–	101	–	–	89.3	99
[27]	–	119	–	–	113	94.8
[28]	–	126	–	–	122	119
[29]	90.4	–	89.6	92.4	–	–

Cc1ccc(-n2nc(C(C)(C)C)cc2NC(=O)Nc2ccc(OCCN3CCOCC3)c3ccccc23)cc1 [Doramapimod]
Details	normalised viability [%]
[1]	95.3
[2]	110
[3]	69.7
[4]	91.1
[5]	86
[6]	87.3
[7]	98.7
[8]	106
[9]	93.8
[10]	109
[11]	90.9
[12]	98
[13]	92.5
[14]	78
[15]	93.8
[16]	94.7
[17]	106

normalised viability [%]
Details	3 nM	10 nM	30 nM	100 nM	1000 nM	10000 nM
[18]	90	–	90.9	87.5	–	–
[19]	116	–	105	95.7	–	–
[20]	–	91.1	–	–	98.2	97.1
[21]	94.4	–	85.4	80.4	–	–
[22]	109	–	105	106	–	–
[23]	–	103	–	–	92.8	81.5
[24]	–	93.8	–	–	110	91.2
[25]	–	96	–	–	115	119
[26]	–	99.2	–	–	99	109
[27]	–	111	–	–	120	113
[28]	–	101	–	–	101	96.9
[29]	123	–	89.1	97.1	–	–

C#Cc1cccc(Nc2ncnc3cc(OCCOC)c(OCCOC)cc23)c1 [Erlotinib]
Details	normalised viability [%]
[1]	98.8
[2]	102
[3]	88.7
[4]	95.4
[5]	109
[6]	102
[7]	110
[8]	114
[9]	109
[10]	88.5
[11]	78
[12]	95
[13]	96.6
[14]	85.4
[15]	103
[16]	106
[17]	94.9

normalised viability [%]
Details	3 nM	10 nM	30 nM	100 nM	1000 nM	10000 nM
[18]	89.7	–	102	98.2	–	–
[19]	102	–	96.1	98.8	–	–
[20]	–	91	–	–	91.2	27.6
[21]	93.7	–	82.8	88	–	–
[22]	109	–	99.2	98	–	–
[23]	–	97.3	–	–	91.5	54.1
[24]	–	91	–	–	74.5	54.8
[25]	–	108	–	–	75.2	43.6
[26]	–	95	–	–	120	95.5
[27]	–	123	–	–	120	69
[28]	–	98.5	–	–	90.1	51
[29]	107	–	90.7	86.7	–	–
